Tests used:
[1] = target: Human α2δ-1 subunit of Cav2.2 calcium channel (Homo sapiens, UniProt P54289); test: Human α2δ-1 subunit of Cav2.2 calcium channel assay ([3H]-gabapentin binding); conditions: binding to the α2δ-1 subunit of voltage-gated calcium channels expressed as Ki; + also covers inhibition between 1% and 50%
Protocol: Biological Activity Pharmacological Study Human α2δ-1 Subunit of Cav2.2 Calcium Channel Assay
Human α2δ-1 enriched membranes (2.5 μg) were incubated with 15 nM of radiolabeled [^3H]-Gabapentin in assay buffer containing Hepes-KOH 10 mM, pH 7.4. NSB (non specific binding) was measured by adding 10 μM pregabalin. The binding of the test compound was measured at either one concentration (% inhibition at 1 or 10 μM) or five different concentrations to determine affinity values (Ki). After 60 min incubation at 27° C., binding reaction was terminated by filtering through Multiscreen GF/C (Millipore) presoaked in 0.5% polyethyleneimine in Vacuum Manifold Station, followed by 3 washes with ice-cold filtration buffer containing 50 mM Tris-HCl, pH 7.4. Filter plates were dried at 60° C. for 1 h and 30 μL of scintillation cocktail were added to each well before radioactivity reading. Readings were performed in a Trilux 1450 Microbeta radioactive counter (Perkin Elmer).

Human σ1 receptor = target: T1, Human σ1 receptor (Homo sapiens, UniProt Q99720); test: Human σ1 receptor radioligand assay ([3H](+)-pentazocine binding, transfected HEK-293 membranes); conditions: binding to σ1 receptor expressed as Ki; + also covers inhibition between 1% and 50%; read-out: σ-1 binding
T1 construct: expressed in transfected cells; host or cells: HEK-293
T1 sequence (Q99720 whole entry): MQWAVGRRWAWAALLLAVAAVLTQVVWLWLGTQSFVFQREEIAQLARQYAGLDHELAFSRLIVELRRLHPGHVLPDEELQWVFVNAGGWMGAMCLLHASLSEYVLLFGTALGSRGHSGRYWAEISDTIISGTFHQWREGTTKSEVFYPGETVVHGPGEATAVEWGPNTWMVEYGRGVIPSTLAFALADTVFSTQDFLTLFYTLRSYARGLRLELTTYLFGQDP
Protocol: Human σ1 Receptor Radioligand Assay
Transfected HEK-293 membranes (7 μg) were incubated with 5 nM of [^3H](+)-pentazocine in assay buffer containing Tris-HCl 50 mM at pH 8. NBS (non-specific binding) was measured by adding 10 μM haloperidol. The binding of the test compound was measured at either one concentration (% inhibition at 1 or 10 μM) or five different concentrations to determine affinity values (Ki). Plates were incubated at 37° C. for 120 minutes. After the incubation period, the reaction mix was then transferred to MultiScreen HTS, FC plates (Millipore), filtered and plates were washed 3 times with ice-cold 10 mM Tris-HCL (pH7.4). Filters were dried and counted at approximately 40% efficiency in a MicroBeta scintillation counter (Perkin-Elmer) using EcoScint liquid scintillation cocktail.

Chain of Human α2δ-1 subunit of Cav2.2 calcium channel (P54289 25-1103): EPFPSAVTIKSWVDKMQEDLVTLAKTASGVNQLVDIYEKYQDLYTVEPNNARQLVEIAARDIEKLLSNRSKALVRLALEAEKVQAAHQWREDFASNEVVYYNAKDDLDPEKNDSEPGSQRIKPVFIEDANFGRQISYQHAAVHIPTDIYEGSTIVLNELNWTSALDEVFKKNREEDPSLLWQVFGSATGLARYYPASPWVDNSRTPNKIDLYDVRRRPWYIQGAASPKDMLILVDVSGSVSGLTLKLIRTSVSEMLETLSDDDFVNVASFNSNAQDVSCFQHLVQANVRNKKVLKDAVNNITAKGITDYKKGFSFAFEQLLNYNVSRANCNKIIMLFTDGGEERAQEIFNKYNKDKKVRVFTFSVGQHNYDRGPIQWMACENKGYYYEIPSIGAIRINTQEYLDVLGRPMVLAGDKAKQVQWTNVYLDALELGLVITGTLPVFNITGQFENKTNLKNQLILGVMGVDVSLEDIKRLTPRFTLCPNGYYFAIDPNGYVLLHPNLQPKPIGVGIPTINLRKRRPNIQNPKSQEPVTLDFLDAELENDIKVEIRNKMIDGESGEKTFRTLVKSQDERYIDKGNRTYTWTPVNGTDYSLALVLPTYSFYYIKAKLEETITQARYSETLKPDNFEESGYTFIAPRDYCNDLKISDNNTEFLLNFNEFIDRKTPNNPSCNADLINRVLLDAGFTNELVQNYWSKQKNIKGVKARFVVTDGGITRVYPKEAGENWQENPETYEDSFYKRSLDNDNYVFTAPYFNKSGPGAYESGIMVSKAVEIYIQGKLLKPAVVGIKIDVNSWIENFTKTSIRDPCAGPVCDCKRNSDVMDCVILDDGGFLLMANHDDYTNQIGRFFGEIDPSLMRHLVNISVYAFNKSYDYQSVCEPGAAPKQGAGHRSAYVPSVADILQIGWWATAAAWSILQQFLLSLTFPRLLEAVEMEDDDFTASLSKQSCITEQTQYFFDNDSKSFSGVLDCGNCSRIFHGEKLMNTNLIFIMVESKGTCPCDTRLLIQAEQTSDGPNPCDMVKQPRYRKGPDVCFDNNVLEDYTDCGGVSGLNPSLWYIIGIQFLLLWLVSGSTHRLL

| Compound | Ki [1] | Ki (Human σ1 receptor) |
| --- | --- | --- |
| COc1cncc(-c2cc3nccc(C4CCCN(Cc5ccccc5)C4)n3n2)c1 (stereo not drawn) [Example 31, 7-(1-Benzylpiperidin-3-yl)-2-(5-methoxypyridin-3-yl)pyrazolo[1,5-a]pyrimidine] | 500 to 5000 nM | > 1000 nM |
| COc1cc(-c2cc3nccc(C4CCCN(Cc5ccccc5)C4)n3n2)ccn1 (stereo not drawn) [Example 32, 7-(1-Benzylpiperidin-3-yl)-2-(2-methoxypyridin-4-yl)pyrazolo[1,5-a]pyrimidine] | > 5000 nM | > 1000 nM |
| COc1cnccc1-c1cc2nccc(C3CCCN(Cc4ccccc4)C3)n2n1 (stereo not drawn) [Example 33, 7-(1-Benzylpiperidin-3-yl)-2-(3-methoxypyridin-4-yl)pyrazolo[1,5-a]pyrimidine] | 500 to 5000 nM | > 1000 nM |
| COc1ccncc1-c1cc2nccc(C3CCCN(Cc4ccccc4)C3)n2n1 (stereo not drawn) [Example 34, 7-(1-Benzylpiperidin-3-yl)-2-(4-methoxypyridin-3-yl)pyrazolo[1,5-a]pyrimidine] | 500 to 5000 nM | > 1000 nM |
| c1ccc(CN2CCCC(c3ccnc4c(-c5ccccc5)cnn34)C2)cc1 (stereo not drawn) [Example 35, 7-(1-Benzylpiperidin-3-yl)-3-phenylpyrazolo[1,5-a]pyrimidine] | > 5000 nM | 500 to 1000 nM |
| c1ccc(CN2CCCC(c3ccnc4c(-c5ccncc5)cnn34)C2)cc1 (stereo not drawn) [Example 36, 7-(1-Benzylpiperidin-3-yl)-3-(pyridin-4-yl)pyrazolo[1,5-a]pyrimidine] | 500 to 5000 nM | 500 to 1000 nM |
| c1ccc(CN2CCCC(c3ccnc4c(-c5cccnc5)cnn34)C2)cc1 (stereo not drawn) [Example 37, 7-(1-Benzylpiperidin-3-yl)-3-(pyridin-3-yl)pyrazolo[1,5-a]pyrimidine] | 500 to 5000 nM | > 1000 nM |
| COc1cc(-c2cnn3c(C4CCCN(Cc5ccccc5)C4)ccnc23)ccn1 (stereo not drawn) [Example 38, 7-(1-Benzylpiperidin-3-yl)-3-(2-methoxypyridin-4-yl)pyrazolo[1,5-a]pyrimidine] | 500 to 5000 nM | > 1000 nM |
| CCOc1ccc(-c2cnn3c(C4CCCN(Cc5ccccc5)C4)ccnc23)cc1 (stereo not drawn) [Example 39, 7-(1-Benzylpiperidin-3-yl)-3-(4-ethoxyphenyl)pyrazolo[1,5-a]pyrimidine] | > 5000 nM | > 1000 nM |
| COc1ncccc1-c1cnn2c(C3CCCN(Cc4ccccc4)C3)ccnc12 (stereo not drawn) [Example 40, 7-(1-Benzylpiperidin-3-yl)-3-(2-methoxypyridin-3-yl)pyrazolo[1,5-a]pyrimidine] | 500 to 5000 nM | > 1000 nM |
| Cc1cnc2c(-c3ccncc3)cnn2c1C1CCCN(Cc2ccccc2)C1 (stereo not drawn) [Example 41, 7-(1-Benzylpiperidin-3-yl)-6-methyl-3-(pyridin-4-yl)pyrazolo[1,5-a]pyrimidine] | 500 to 5000 nM | > 1000 nM |
| Cc1nn2c(C3CCCN(Cc4ccccc4)C3)ccnc2c1-c1ccncc1 (stereo not drawn) [Example 42, 7-(1-Benzylpiperidin-3-yl)-2-methyl-3-(pyridin-4-yl)pyrazolo[1,5-a]pyrimidine] | 500 to 5000 nM | > 1000 nM |
| COc1ncccc1-c1c(C)nn2c(C3CCCN(Cc4ccccc4)C3)ccnc12 (stereo not drawn) [Example 43, 7-(1-Benzylpiperidin-3-yl)-3-(2-methoxypyridin-3-yl)-2-methylpyrazolo[1,5-a]pyrimidine] | 500 to 5000 nM | > 1000 nM |
| Cc1nn2c(C3CCCN(Cc4ccccc4)C3)ccnc2c1-c1ccccc1 (stereo not drawn) [Example 44, 7-(1-Benzylpiperidin-3-yl)-2-methyl-3-phenylpyrazolo[1,5-a]pyrimidine] | > 5000 nM | > 1000 nM |
| CCOc1ccc(-c2c(C)nn3c(C4CCCN(Cc5ccccc5)C4)ccnc23)cc1 (stereo not drawn) [Example 45, 7-(1-Benzylpiperidin-3-yl)-3-(4-ethoxyphenyl)-2-methylpyrazolo[1,5-a]pyrimidine] | > 5000 nM | 500 to 1000 nM |
| COc1cc(-c2c(C)nn3c(C4CCCN(Cc5ccccc5)C4)ccnc23)ccn1 (stereo not drawn) [Example 46, 7-(1-Benzylpiperidin-3-yl)-3-(2-methoxypyridin-4-yl)-2-methylpyrazolo[1,5-a]pyrimidine] | 500 to 5000 nM | > 1000 nM |
| Cc1nn2c(C3CCCN(Cc4ccccc4)C3)ccnc2c1-c1ccc(N(C)C)cc1 (stereo not drawn) [Example 47, 4-(7-(1-Benzylpiperidin-3-yl)-2-methylpyrazolo[1,5-a]pyrimidin-3-yl)-N,N-dimethylaniline] | > 5000 nM | > 1000 nM |

| Compound | Ki [1] | Ki (Human σ1 receptor) |
| --- | --- | --- |
| Cc1nn2c(C3CCCN(Cc4ccccc4)C3)ccnc2c1-c1ccccc1F (stereo not drawn) [Example 48, 7-(1-Benzylpiperidin-3-yl)-3-(2-fluorophenyl)-2-methylpyrazolo[1,5-a]pyrimidine] | > 5000 nM | > 1000 nM |
| Cc1cnccc1-c1c(C)nn2c(C3CCCN(Cc4ccccc4)C3)ccnc12 (stereo not drawn) [Example 49, 7-(1-Benzylpiperidin-3-yl)-2-methyl-3-(3-methylpyridin-4-yl)pyrazolo[1,5-a]pyrimidine] | > 5000 nM | > 1000 nM |
| Cc1nn2c(C3CCCN(Cc4ccccc4)C3)ccnc2c1-c1ccnc(F)c1 (stereo not drawn) [Example 50, 7-(1-Benzylpiperidin-3-yl)-3-(2-fluoropyridin-4-yl)-2-methylpyrazolo[1,5-a]pyrimidine] | 500 to 5000 nM | > 1000 nM |
| Cc1cc(-c2c(C)nn3c(C4CCCN(Cc5ccccc5)C4)ccnc23)ccn1 (stereo not drawn) [Example 51, 7-(1-Benzylpiperidin-3-yl)-2-methyl-3-(2-methylpyridin-4-yl)pyrazolo[1,5-a]pyrimidine] | 500 to 5000 nM | 500 to 1000 nM |
| Cc1nn2c(C3CCCN(Cc4ccccc4)C3)ccnc2c1-c1ccncc1F (stereo not drawn) [Example 52, 7-(1-Benzylpiperidin-3-yl)-3-(3-fluoropyridin-4-yl)-2-methylpyrazolo[1,5-a]pyrimidine] | 500 to 5000 nM | > 1000 nM |
| Cc1nn2c(C3CCCN(Cc4ccccc4)C3)ccnc2c1-c1ccnc(C(F)(F)F)c1 (stereo not drawn) [Example 53, 7-(1-Benzylpiperidin-3-yl)-2-methyl-3-(2-(trifluoromethyl)pyridin-4-yl)pyrazolo[1,5-a]pyrimidine] | 500 to 5000 nM | > 1000 nM |
| CCc1cc(-c2c(C)nn3c(C4CCCN(Cc5ccccc5)C4)ccnc23)ccn1 (stereo not drawn) [Example 54, 7-(1-Benzylpiperidin-3-yl)-3-(2-ethylpyridin-4-yl)-2-methylpyrazolo[1,5-a]pyrimidine] | 500 to 5000 nM | > 1000 nM |
| Cc1nc(-c2cccc(-c3c(C)nn4c(C5CCCN(Cc6ccccc6)C5)ccnc34)c2)no1 (stereo not drawn) [Example 55, 3-(3-(7-(1-Benzylpiperidin-3-yl)-2-methylpyrazolo[1,5-a]pyrimidin-3-yl)phenyl)-5-methyl-1,2,4-oxadiazole] | 500 to 5000 nM | > 1000 nM |
| Cc1nnc(-c2cccc(-c3c(C)nn4c(C5CCCN(Cc6ccccc6)C5)ccnc34)c2)o1 (stereo not drawn) [Example 56, 2-(3-(7-(1-Benzylpiperidin-3-yl)-2-methylpyrazolo[1,5-a]pyrimidin-3-yl)phenyl)-5-methyl-1,3,4-oxadiazole] | 500 to 5000 nM | > 1000 nM |
| COc1cnccc1-c1c(C)nn2c(C3CCCN(Cc4ccccc4)C3)ccnc12 (stereo not drawn) [Example 57, 7-(1-Benzylpiperidin-3-yl)-3-(3-methoxypyridin-4-yl)-2-methylpyrazolo[1,5-a]pyrimidine] | 500 to 5000 nM | > 1000 nM |
| Cc1cnc2c(-c3ccncc3)c(C)nn2c1C1CCCN(Cc2ccccc2)C1 (stereo not drawn) [Example 58, 7-(1-Benzylpiperidin-3-yl)-2,6-dimethyl-3-(pyridin-4-yl)pyrazolo[1,5-a]pyrimidine] | 500 to 5000 nM | > 1000 nM |
| Cc1cc(C2CCCN(Cc3ccccc3)C2)n2nc(C)c(-c3ccncc3)c2n1 (stereo not drawn) [Example 59, 7-(1-Benzylpiperidin-3-yl)-2,5-dimethyl-3-(pyridin-4-yl)pyrazolo[1,5-a]pyrimidine] | 500 to 5000 nM | > 1000 nM |
| CCc1nn2c(C3CCCN(Cc4ccccc4)C3)ccnc2c1-c1ccncc1 (stereo not drawn) [Example 60, 7-(1-Benzylpiperidin-3-yl)-2-ethyl-3-(pyridin-4-yl)pyrazolo[1,5-a]pyrimidine] | 500 to 5000 nM | > 1000 nM |
| CNCc1cn(-c2cccc(-c3c(C)nn4c(C5CCCN(Cc6ccccc6)C5)ccnc34)c2)nn1 (stereo not drawn) [Example 61, 1-(1-(3-(7-(1-Benzylpiperidin-3-yl)-2-methylpyrazolo[1,5-a]pyrimidin-3-yl)phenyl)-1H-1,2,3-triazol-4-yl)-N-methylmethanamine] | 500 to 5000 nM | > 1000 nM |
| CNCc1cc(-c2c(C)nn3c(C4CCCN(Cc5ccccc5)C4)ccnc23)ccn1 (stereo not drawn) [Example 62, 1-(4-(7-(1-Benzylpiperidin-3-yl)-2-methylpyrazolo[1,5-a]pyrimidin-3-yl)pyridin-2-yl)-N-methylmethanamine] | 500 to 5000 nM | > 1000 nM |
| Cc1cc2nccc(C3CCCN(Cc4ccccc4F)C3)n2n1 (stereo not drawn) [Example 63, 7-(1-(2-Fluorobenzyl)piperidin-3-yl)-2-methylpyrazolo[1,5-a]pyrimidine] | > 5000 nM | > 1000 nM |

Reference: patent US12617797B2, “Substituted pyrazolo [1,5-a]pyrimidines having multimodal activity against pain” (ESTEVE PHARMACEUTICALS, S.A., priority 2020, dated 2026)
